From US20220226337A1 (Gilead Sciences, Inc., priority 2018, published 2022)

target: T1, α4β7 integrin interaction with MadCAM-1 (RPMI8866 cells) (Homo sapiens, UniProt P13612+P26010); assay: α4β7 Integrin Cell Capture Assay; format: cell-based; details: capture of α4β7 integrin expressing RPMI8866 cells on recombinant MadCAM-1 extracellular domain-coated plate; 0.5 mM MnCl2
T1 construct: α4β7 integrin expressing cells; endogenous in cells; host or cells: RPMI8866 cells
T1 sequence (P13612 34-1032): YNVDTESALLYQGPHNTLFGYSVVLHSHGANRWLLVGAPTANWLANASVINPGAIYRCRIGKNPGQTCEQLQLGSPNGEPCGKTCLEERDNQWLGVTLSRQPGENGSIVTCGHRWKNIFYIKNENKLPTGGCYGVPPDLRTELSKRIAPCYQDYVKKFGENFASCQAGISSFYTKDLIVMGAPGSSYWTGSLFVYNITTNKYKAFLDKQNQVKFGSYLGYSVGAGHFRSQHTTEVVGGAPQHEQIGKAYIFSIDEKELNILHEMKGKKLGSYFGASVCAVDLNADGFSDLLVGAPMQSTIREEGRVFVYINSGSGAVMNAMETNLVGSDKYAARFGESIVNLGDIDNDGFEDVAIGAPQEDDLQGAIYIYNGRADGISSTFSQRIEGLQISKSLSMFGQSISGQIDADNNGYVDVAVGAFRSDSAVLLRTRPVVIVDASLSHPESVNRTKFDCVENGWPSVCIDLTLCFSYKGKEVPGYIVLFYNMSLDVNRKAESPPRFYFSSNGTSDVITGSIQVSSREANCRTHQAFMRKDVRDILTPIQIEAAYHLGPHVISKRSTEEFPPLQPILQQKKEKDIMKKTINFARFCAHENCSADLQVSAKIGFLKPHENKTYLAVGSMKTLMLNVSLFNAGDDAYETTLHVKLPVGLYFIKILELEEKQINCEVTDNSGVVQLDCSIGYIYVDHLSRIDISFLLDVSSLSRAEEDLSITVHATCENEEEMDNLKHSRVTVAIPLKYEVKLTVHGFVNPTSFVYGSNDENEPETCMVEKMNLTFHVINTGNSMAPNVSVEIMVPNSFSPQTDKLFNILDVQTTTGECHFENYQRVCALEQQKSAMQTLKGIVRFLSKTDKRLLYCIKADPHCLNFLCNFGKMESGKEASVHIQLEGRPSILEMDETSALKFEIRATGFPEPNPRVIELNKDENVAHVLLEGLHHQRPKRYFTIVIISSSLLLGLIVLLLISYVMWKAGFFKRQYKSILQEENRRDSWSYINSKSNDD
T1 sequence (P26010 20-798): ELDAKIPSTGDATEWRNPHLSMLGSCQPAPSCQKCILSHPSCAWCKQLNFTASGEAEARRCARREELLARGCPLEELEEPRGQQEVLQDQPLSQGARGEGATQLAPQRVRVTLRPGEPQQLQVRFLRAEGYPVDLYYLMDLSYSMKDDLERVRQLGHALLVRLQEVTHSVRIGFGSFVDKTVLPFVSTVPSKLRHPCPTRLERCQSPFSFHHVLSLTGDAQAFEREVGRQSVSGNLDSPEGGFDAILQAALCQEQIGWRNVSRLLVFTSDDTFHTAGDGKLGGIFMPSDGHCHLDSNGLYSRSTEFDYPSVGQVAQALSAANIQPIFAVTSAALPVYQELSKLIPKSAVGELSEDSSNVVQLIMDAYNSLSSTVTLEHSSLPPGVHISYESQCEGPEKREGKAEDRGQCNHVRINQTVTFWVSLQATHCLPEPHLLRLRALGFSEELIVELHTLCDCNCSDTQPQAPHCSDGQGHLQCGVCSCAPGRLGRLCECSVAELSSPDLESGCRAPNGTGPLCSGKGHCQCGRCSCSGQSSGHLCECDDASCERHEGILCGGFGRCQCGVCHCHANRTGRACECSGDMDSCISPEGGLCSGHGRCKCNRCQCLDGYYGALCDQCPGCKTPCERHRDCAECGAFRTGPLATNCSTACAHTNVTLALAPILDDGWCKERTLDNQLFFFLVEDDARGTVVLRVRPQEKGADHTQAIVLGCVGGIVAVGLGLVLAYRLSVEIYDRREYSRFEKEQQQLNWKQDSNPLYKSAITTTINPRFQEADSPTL
How it was run: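 RPMI8866 cells (0.5×10^6 cells/mL in DMEM + 0.5% FBS + 0.5 mM MnCl2) preincubated with compound 1 h at 37 °C, then allowed to adhere 30 min at 37 °C to plates coated with MAdCAM-1 extracellular domain (1.0 μg/mL). Bound cells fixed with 2% glutaraldehyde, Hoechst-stained, imaged and counted; EC50 from cell count versus concentration.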

Row | EC50 [nM] | Structure (SMILES)
1 | 0.374 | Cc1cc(N2CCOC[C@@H]2C(F)(F)F)cc(F)c1C(=O)N[C@@H](Cc1ccc(-c2c(C)ncn(C)c2=O)c2c1CCCO2)C(=O)O [Example 134]
2 | 0.094 | Cc1cc(N2CCOC[C@@H]2C(F)(F)F)cc(F)c1C(=O)N[C@@H](Cc1ccc(-c2c(C(F)(F)F)cc(C)n(C)c2=O)c2c1CCCO2)C(=O)O [Example 135]
3 | 0.964 | Cc1nc(-c2ccc(C[C@H](NC(=O)c3c(F)cc(N4C[C@H]5C[C@H]5[C@@H]4C(F)(F)F)cc3F)C(=O)O)c3c2OCCC3)c(=O)n(C)c1C [Example 138]
4 | 2 | Cc1cc(N2CCOC3(CC3)C2)cc(F)c1C(=O)N[C@@H](Cc1ccc(-c2nc(C)c(C)n(C)c2=O)c2c1CCCO2)C(=O)O [Example 139]
5 | 0.55 | COc1ccc(C)nc1-c1ccc(C[C@H](NC(=O)c2c(F)cc(N3CCOC[C@@H]3C(F)(F)F)cc2F)C(=O)O)c2c1OCCC2 [Example 140]
6 | 0.529 | Cc1c(Cl)cc(-c2ccc(C[C@H](NC(=O)c3c(F)cc(N4CCOC[C@@H]4C(F)(F)F)cc3F)C(=O)O)c3c2OCCC3)c(=O)n1C [Example 141]
7 | 0.25 | Cc1cc(N2CCOC[C@@H]2C(F)(F)F)cc(F)c1C(=O)N[C@@H](Cc1ccc(-c2cc(Cl)c(C)n(C)c2=O)c2c1CCCO2)C(=O)O [Example 142]
8 | 4.72 | Cc1nc(-c2ccc(C[C@H](NC(=O)c3c(F)cc(N4CCC(F)(F)C[C@H]4C(F)(F)F)cc3F)C(=O)O)c3c2OCCC3)c(=O)n(C)c1C [Example 143]
9 | 0.552 | Cc1nc(-c2ccc(C[C@H](NC(=O)c3c(F)cc(N4CCC(F)(F)C[C@@H]4C(F)(F)F)cc3F)C(=O)O)c3c2OCCC3)c(=O)n(C)c1C [Example 144]
10 | 0.714 | Cc1cc(N2CCOC[C@@H]2C(F)(F)F)cc(F)c1C(=O)N[C@@H](Cc1ccc(-c2c(N3CCC3)cc(C)n(C)c2=O)c2c1CCCO2)C(=O)O [Example 145]
11 | 0.416 | Cc1cc(N2CCOC[C@@H]2C(F)(F)F)cc(F)c1C(=O)N[C@@H](Cc1ccc(-c2c(C)c(C(F)(F)F)cn(C)c2=O)c2c1CCCO2)C(=O)O [Example 146]
12 | 2.42 | Cc1cc(N2CCOC[C@@H]2C(F)(F)F)cc(F)c1C(=O)N[C@@H](Cc1ccc(-c2cc(N(C)C)c(C)n(C)c2=O)c2c1CCCO2)C(=O)O [Example 147]
13 | 0.76 | Cc1cc(-c2ccc(C[C@H](NC(=O)c3c(F)cc(N4CCOC[C@@H]4C(F)(F)F)cc3F)C(=O)O)c3c2OCCC3)c(=O)n(C)n1 [Example 148]
14 | 0.715 | Cc1cc(N2CCCC[C@@H]2C(F)(F)F)cc(F)c1C(=O)N[C@@H](Cc1ccc(-c2nc(C)c(C)n(C)c2=O)c2c1CCCO2)C(=O)O [Example 149]
15 | 0.14 | Cc1nc(-c2ccc(C[C@H](NC(=O)c3c(F)cc(N4CCOC[C@@H]4C(F)(F)F)cc3Cl)C(=O)O)c3c2OCCC3)c(=O)n(C)c1C [Example 150]
16 | 0.144 | Cc1cc(N2CCOC[C@@H]2C(F)(F)F)cc(F)c1C(=O)N[C@@H](Cc1ccc(-c2c(C)c(C)c(C)n(C)c2=O)c2c1CCCO2)C(=O)O [Example 151]
17 | 0.358 | Cc1c(C)c(C)n(C)c(=O)c1-c1ccc(C[C@H](NC(=O)c2c(F)cc(N3CCOC[C@@H]3C(F)(F)F)cc2F)C(=O)O)c2c1OCCC2 [Example 154]
18 | 0.358 | Cc1cc(N2CCOC[C@@H]2C(F)(F)F)cc(F)c1C(=O)N[C@@H](Cc1ccc(-c2cc(C)c(C)n(C)c2=O)c2c1CCCO2)C(=O)O [Example 155]
19 | 0.84 | Cc1nc(-c2ccc(C[C@H](NC(=O)c3c(F)cc(N4CCCC[C@@H]4C(F)(F)F)cc3F)C(=O)O)c3c2OCCC3)c(=O)n(C)c1C [Example 156]

Row | EC50 [nM] | Structure (SMILES)
20 | 1.82 | Cc1nc(-c2ccc(C[C@H](NC(=O)c3c(F)cc(N4CCO[C@@H](C)C4)cc3F)C(=O)O)c3c2OCCC3)c(=O)n(C)c1C [Example 157]
21 | 0.502 | C=C1COCCN(c2cc(F)c(C(=O)N[C@@H](Cc3ccc(-c4nc(C)c(C)n(C)c4=O)c4c3CCCO4)C(=O)O)c(F)c2)C1 [Example 158]
22 | 0.226 | Cc1cc(C)n(C)c(=O)c1-c1ccc(C[C@H](NC(=O)c2c(F)cc(N3CCOC[C@@H]3C(F)(F)F)cc2Cl)C(=O)O)c2c1OCCC2 [Example 159]
23 | 0.189 | Cc1cc(N2CCOC[C@@H]2C(F)(F)F)cc(F)c1C(=O)N[C@@H](Cc1ccc(-c2c(C)cc(C)n(C)c2=O)c2c1CCCO2)C(=O)O [Example 160]
24 | 0.364 | Cc1cc(C)n(C)c(=O)c1-c1ccc(C[C@H](NC(=O)c2c(F)cc(N3CCOC[C@@H]3C(F)(F)F)cc2F)C(=O)O)c2c1OCCC2 [Example 161]
25 | 0.78 | Cc1cc(-c2ccc(C[C@H](NC(=O)c3c(F)cc(N4CCOC[C@@H]4C(F)(F)F)cc3F)C(=O)O)c3c2OCCC3)c(=O)n(C)c1C [Example 162]
26 | 0.731 | Cc1cn(C)c(=O)c(-c2ccc(C[C@H](NC(=O)c3c(C)cc(N4CCOC[C@@H]4C(F)(F)F)cc3F)C(=O)O)c3c2OCCC3)n1 [Example 163]
27 | 0.482 | CCc1nc(-c2ccc(C[C@H](NC(=O)c3c(F)cc(N4CCOC[C@@H]4C(F)(F)F)cc3F)C(=O)O)c3c2OCCC3)c(=O)n(C)c1CC [Example 164]
28 | 0.25 | Cc1cc(N2CCOC[C@@H]2C(F)(F)F)cc(F)c1C(=O)N[C@@H](Cc1ccc(-c2nc(C)c(C)n(C)c2=O)c2c1CCCO2)C(=O)O [Example 165]
29 | 0.195 | COc1cc(C)n(C)c(=O)c1-c1ccc(C[C@H](NC(=O)c2c(C)cc(N3CCOC[C@@H]3C(F)(F)F)cc2F)C(=O)O)c2c1OCCC2 [Example 166]
30 | 0.521 | Cc1cc(N2CCC2)c(-c2ccc(C[C@H](NC(=O)c3c(F)cc(N4CCOC[C@@H]4C(F)(F)F)cc3F)C(=O)O)c3c2OCCC3)c(=O)n1C [Example 167]
31 | 0.946 | Cc1cn(C)c(=O)c(-c2ccc(C[C@H](NC(=O)c3c(F)cc(N4CCOC[C@@H]4C(F)(F)F)cc3F)C(=O)O)c3c2OCCC3)n1 [Example 168]
32 | 0.356 | CCc1nc(-c2ccc(C[C@H](NC(=O)c3c(C)cc(N4CCOC[C@@H]4C(F)(F)F)cc3F)C(=O)O)c3c2OCCC3)c(=O)n(C)c1CC [Example 169]
33 | 0.14 | Cc1cc(N2CCOC[C@@H]2C(F)(F)F)cc(F)c1C(=O)N[C@@H](Cc1ccc(-c2cc3cnccc3n(C)c2=O)c2c1CCCO2)C(=O)O [Example 170]
34 | 0.201 | Cn1c(=O)c(-c2ccc(C[C@H](NC(=O)c3c(F)cc(N4CCOC[C@@H]4C(F)(F)F)cc3F)C(=O)O)c3c2OCCC3)cc2cnccc21 [Example 171]
35 | 0.056 | Cc1cc(N2CCOC[C@@H]2C(F)(F)F)cc(F)c1C(=O)N[C@@H](Cc1ccc(-n2c(=O)c3ccncc3n(C)c2=O)c2c1OCCO2)C(=O)O [Example 173]
36 | 0.205 | Cc1nc(-c2ccc(C[C@H](NC(=O)c3c(F)cc(N4CCOC[C@@H]4C(F)(F)F)cc3F)C(=O)O)c3c2OCCO3)c(=O)n(C)c1C [Example 175]
37 | 0.593 | Cc1ncc(-c2ccc(C[C@H](NC(=O)c3c(F)cc(N4CCOC[C@@H]4C(F)(F)F)cc3F)C(=O)O)c3c2OCCO3)c(=O)n1C [Example 177]
38 | 0.348 | Cc1cc(N2CCOC[C@@H]2C(F)(F)F)cc(F)c1C(=O)N[C@@H](Cc1ccc(-c2cnc(C)n(C)c2=O)c2c1OCCO2)C(=O)O [Example 178]
